Test results taken from US9045501B2, “5-HT3 receptor modulators, methods of making, and use thereof” (Albany Molecular Research, Inc., priority 2009, dated 2015).
pKi: −log10 of the molar value.

How the values were obtained:
human 5-HT3 receptor = human 5-HT3 receptor (Homo sapiens (Human), UniProt P46098); experiment: Radioligand binding assay (SPA format), affinity for the human 5-HT3 receptor; conditions: [9-methyl-3H]BRL-43694 10 nM, human 5-HT3 receptor membranes, Cheng Prusoff; read-out: h5-HT3A Ki
Chain of human 5-HT3 receptor (P46098 24-478): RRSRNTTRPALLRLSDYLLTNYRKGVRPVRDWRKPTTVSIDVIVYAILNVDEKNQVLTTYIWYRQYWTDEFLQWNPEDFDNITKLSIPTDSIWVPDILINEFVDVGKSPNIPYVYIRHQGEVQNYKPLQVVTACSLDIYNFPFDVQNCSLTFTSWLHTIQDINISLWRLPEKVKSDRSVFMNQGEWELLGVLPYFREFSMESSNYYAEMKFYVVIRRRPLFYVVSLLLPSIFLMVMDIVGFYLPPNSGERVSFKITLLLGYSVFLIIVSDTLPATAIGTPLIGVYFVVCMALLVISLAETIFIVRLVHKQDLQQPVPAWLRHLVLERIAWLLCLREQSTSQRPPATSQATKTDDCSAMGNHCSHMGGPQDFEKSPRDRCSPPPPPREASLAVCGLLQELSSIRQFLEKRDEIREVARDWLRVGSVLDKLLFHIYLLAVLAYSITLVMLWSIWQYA
Protocol: The relative affinity of the various compounds for the human 5-HT3 receptor was measured in a radioligand binding assay, using a scintillation proximity assay (SPA) format. Test compounds were dissolved to 10 mM in 100% DMSO, then serially diluted at 10× assay concentrations in 100% DMSO in 96-well polypropylene plates and further diluted to 4× assay concentrations with the assay buffer. Samples were incubated in 50 mM Tris-HCl, pH 7.5, 3 mM MgCl2, 1 mM EDTA and 10% DMSO with 10 nM [9-methyl-^3H]BRL-43694 (Perkin Elmer), 3 μg of human 5-HT3 receptor membranes (Perkin Elmer) and 0.5 mg/mL SPA beads (WGA PVT, Amersham Biosciences) in a final volume of 0.2 mL. Binding reactions were set up in wells of PicoPlates-96 (Perkin Elmer) by adding consecutively 50 μL of each competing compound or buffer, SPA beads, the radioligand and 5-HT3 receptor membranes. After an overnight incubation at room temperature on a Nutator mixer, plates were centrifuged for 15 min at 1,500 rpm, followed by incubation in the dark for 30 min. Radioactivity was counted in the TopCount microplate counter (Perkin Elmer) for 5 min. Total binding control contained compound dilution buffer only; nonspecific binding was determined in the presence of 30 μM MDL-72222. Specific binding was determined by subtracting nonspecific binding from total binding. All experiments were performed in duplicate using ten concentrations of competing ligand, with ondansetron included as a control in every run. IC50 values were determined from specific binding data using XLfit4.1 curve fitting software from IDBS Ltd. The inhibition constant (Ki) was calculated from the Cheng Prusoff equation: (Ki=IC50/(1+(L/KD)), where L=concentration of radioligand in the assay, and KD=affinity of the radioligand for the receptor.

h5-HT3A receptor = h5-HT3A receptor (Homo sapiens (Human), UniProt P46098); experiment: Agonist activity at recombinant human 5-HT3A receptors, [Ca2+]i in HEK293 cells; assay type: cell-based; conditions: at 1 μM, normalized to the response of 5-HT (5-HT response = 100% at 3 μM); NR = no response
Chain of h5-HT3A receptor (P46098 24-478): as above
Protocol: Human embryonic kidney (HEK293) cells expressing the h5-HT3A receptor subunit were seeded directly into poly-D-lysine coated, black-walled, clear bottomed, 96 well plates with approximately 1×10^5 cells per well. After 48 hrs incubation in DMEM growth media (100 μL), cells were washed twice (each 200 μL) in Hank's balanced salt solution (Invitrogen) before incubation (1 hr) with Fluo-4 acetoxymethyl (AM) ester (100 μL, 2.5 μM; Molecular Probes). Cells were washed twice (each 200 μL) in Hank's balanced salt solution and incubated for a further 30 min in Hank's balanced salt solution (100 μL) prior to assay (25° C.). Alteration in [Ca^2+]i was measured (relative fluorescence units [RFU]) using a Flexstation (excitation 488 nm and emission 515 nm; frequency of recording 3 sec). After recording for at least 80 sec, vehicle (Hank's balanced salt solution) or drug was automatically administered to the well (50 μL). Baseline was calculated from the 5 data points immediately prior to the first drug administration and the maximum response was that achieved over the 240 sec following drug administration. In all experiments the muscarinic receptor agonist carbachol (1 mM) was added 240 sec after the test drug administration.

5-HT3 receptors = 5-HT3 receptors (Mus musculus (Mouse), UniProt P23979); experiment: von Bezold-Jarisch model in vivo: inhibition of 5-HT induced bradycardia; conditions: 3 mg/kg oral, 60 min before 5-HT 0.1 mg/kg IV, anesthetized male ICR mice; highest oral dose tested
Chain of 5-HT3 receptors (P23979 24-489): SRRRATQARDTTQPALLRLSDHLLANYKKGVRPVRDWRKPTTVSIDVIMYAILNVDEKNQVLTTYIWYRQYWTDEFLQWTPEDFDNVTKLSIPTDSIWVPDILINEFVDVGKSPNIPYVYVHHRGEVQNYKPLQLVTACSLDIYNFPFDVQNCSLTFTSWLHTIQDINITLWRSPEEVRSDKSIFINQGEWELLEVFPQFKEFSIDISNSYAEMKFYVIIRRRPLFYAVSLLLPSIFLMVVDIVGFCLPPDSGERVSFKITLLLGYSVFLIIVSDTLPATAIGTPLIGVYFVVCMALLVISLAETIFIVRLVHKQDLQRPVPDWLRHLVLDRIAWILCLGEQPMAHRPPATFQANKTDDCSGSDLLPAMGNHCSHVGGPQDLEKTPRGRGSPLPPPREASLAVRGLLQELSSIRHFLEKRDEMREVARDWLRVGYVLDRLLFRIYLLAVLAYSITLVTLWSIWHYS
Protocol: This is a well characterized and widely used model to assess 5-HT3 receptor function in vivo (King et al., 5-Hydroxtryptamine-3 Receptor Antagonists, CRC Press, pp. 74-75 (1993), which is hereby incorporated by reference in its entirety). Certain compounds (Table 1) were evaluated for their ability to inhibit serotonin induced bradycardia in vivo in the mouse (Saxena et al., Arch. Int. Pharmacodyn., 277:235-252 (1985), which is hereby incorporated by reference in its entirety). Test substances and vehicle [2% Tween 80] were each administered orally to a group of 5 male ICR mice each weighing 24±2 g. A dosing volume of 10 mL/kg was used. Sixty minutes later, 5-HT (0.1 mg/kg IV)-induced bradycardia was recorded in urethane (2250 mg/kg IP, given 10 minutes before 5-HT)-anesthetized animals.

| Structure (SMILES) | pKi (human 5-HT3 receptor) | HEK293 h5-HT3A % agonist response (h5-HT3A receptor) [%] | Inhibition of 5-HT Induced Bradycardia in Mice (5-HT3 receptors) [% @ 3 mg/kg] |
| --- | --- | --- | --- |
| O=C1c2cccc3cnn(c23)CCN1[C@@H]1CN2CCC1CC2 [Example 7, (S)-7-(quinuclidin-3-yl)-8,9-dihydro-[1,4]diazepino[6,7,1-hi]indazol-6(7H)-one] | 8.10 | 19 | 77 |
| O=C1c2cccc3[nH]nc(c23)CN1CC12CCN(CC1)CC2 [Example 29, 4-(quinuclidin-4-ylmethyl)-3,4-dihydropyrazolo[3,4,5-de]isoquinolin-5(1H)-one] | 8.70 | 1 | 87 |
